Assay results published in BindingDB's records for PubMed 995128 (1976).
“And” between values parts separate entries of the source, which are not always exact repeats. Identical values can stand only once. Counter-ions that a name gives are not always drawn.

How the values were obtained:
[1] = target: D(2) dopamine receptor (Bos taurus, UniProt P20288)
[2] = target: D(1A) dopamine receptor (Bos taurus, UniProt Q95136)
Chain of D(1A) dopamine receptor (Q95136 whole entry): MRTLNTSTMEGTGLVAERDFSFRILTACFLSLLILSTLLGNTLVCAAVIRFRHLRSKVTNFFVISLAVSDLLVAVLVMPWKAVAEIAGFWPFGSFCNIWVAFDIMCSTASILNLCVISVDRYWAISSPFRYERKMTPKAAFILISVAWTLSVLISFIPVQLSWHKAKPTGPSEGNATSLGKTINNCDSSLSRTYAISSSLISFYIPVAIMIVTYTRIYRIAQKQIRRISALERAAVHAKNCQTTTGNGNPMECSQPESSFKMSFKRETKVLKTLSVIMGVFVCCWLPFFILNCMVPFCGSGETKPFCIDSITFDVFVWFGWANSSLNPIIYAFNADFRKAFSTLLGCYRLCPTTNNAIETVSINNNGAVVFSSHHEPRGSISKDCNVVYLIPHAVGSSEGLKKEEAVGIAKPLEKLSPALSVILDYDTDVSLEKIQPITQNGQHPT

Chain of D(2) dopamine receptor (P20288 whole entry): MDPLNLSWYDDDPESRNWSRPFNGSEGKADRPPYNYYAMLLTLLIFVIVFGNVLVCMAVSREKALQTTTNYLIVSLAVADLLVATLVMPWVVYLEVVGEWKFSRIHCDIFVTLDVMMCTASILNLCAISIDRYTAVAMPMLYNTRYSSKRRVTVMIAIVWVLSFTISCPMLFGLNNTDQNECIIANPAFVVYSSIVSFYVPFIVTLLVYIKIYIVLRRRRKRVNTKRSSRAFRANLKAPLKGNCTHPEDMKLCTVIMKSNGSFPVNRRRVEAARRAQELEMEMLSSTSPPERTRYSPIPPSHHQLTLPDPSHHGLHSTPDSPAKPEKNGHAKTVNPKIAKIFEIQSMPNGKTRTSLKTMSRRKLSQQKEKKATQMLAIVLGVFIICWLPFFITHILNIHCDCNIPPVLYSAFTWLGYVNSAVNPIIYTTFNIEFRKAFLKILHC

Row | Structure (SMILES) | Ki [1] | Ki [2]
1 | CCC(=O)C(CC(C)N(C)C)(c1ccccc1)c1ccccc1 (stereo not given) [CAS_5967-73-7] | 2700 nM | > 10000 nM
2 | OCCN1CCN(CCCN2c3ccccc3Sc3ccc(C(F)(F)F)cc32)CC1 [2-[4-[3-[2-(trifluoromethyl)phenothiazin-10-yl]propyl]piperazin-1-yl]ethanol;hydrochloride] | 0.88 nM and 0.6 nM and 0.3 nM and 0.8 nM | –
3 | O=C(CCCN1CCC(O)(c2ccc(Cl)cc2)CC1)c1ccc(F)cc1 [4-[4-(4-Chloro-phenyl)-4-hydroxy-piperidin-1-yl]-1-(4-fluoro-phenyl)-butan-1-one;propionate(HCl)] | – | 920 nM and 1060 nM and 1100 nM
4 | CN(C)CCCN1c2ccccc2CCc2ccccc21 | 180 nM | > 10000 nM
5 | O=C(CCCN1CCC(n2c(O)nc3ccccc32)CC1)c1ccc(F)cc1 [CAS_2062-84-2] | 0.33 nM | 4100 nM
6 | CC(COc1ccccc1)N(CCCl)Cc1ccccc1 (stereo not given) | 140 nM | > 10000 nM
7 | O=c1[nH]c2ccccc2n1C1CCN(CCCC(c2ccc(F)cc2)c2ccc(F)cc2)CC1 [1-(1-(4,4-bis(4-fluorophenyl)butyl)piperidin-4-yl)-1H-benzo[d]imidazol-2(3H)-one] | 0.81 nM and 0.6 nM | 5300 nM and 7600 nM and 6800 nM
8 | CN1C[C@H](C(=O)N[C@]2(C)O[C@@]3(O)[C@@H]4CCCN4C(=O)[C@H](Cc4ccccc4)N3C2=O)C=C2c3cccc4[nH]cc(c34)C[C@H]21 [12'-hydroxy-2'-methyl-5'alpha-(phenylmethyl)ergotaman-3',6',18-trione] | 1.8 nM | 30 nM
9 | CCc1c(C)[nH]c2c1C(=O)C(CN1CCOCC1)CC2 (stereo not given) [Moban] | 68 nM and 65 nM and 85 nM and 90 nM | > 10000 nM
10 | CC(C)=CCN1CC[C@@]2(C)c3cc(O)ccc3C[C@@H]1[C@@H]2C [Talwin] | 3500 nM | > 10000 nM
11 | OCCN1CCN(CCCC2c3ccc(F)cc3Sc3ccc(C(F)(F)F)cc32)CC1 (stereo not given) [NSC_68751] | 2.6 nM | 1900 nM
12 | CC(C)C[C@H]1C(=O)N2CCCC2[C@]2(O)O[C@](NC(=O)[C@@H]3C=C4c5cccc6[nH]cc(c56)CC4N(C)C3)(C(C)C)C(=O)N12 (stereo partly drawn) [ALPHA-ERGOCRYPTINE] | 1.3 nM | 69 nM
13 | Cc1ccc(C2(O)CCN(CCCC(=O)c3ccc(F)cc3)CC2)cc1 [NSC_4249] | 1.9 nM | 1200 nM
14 | O=C(CCC(F)N1CCC(O)(c2cccc(C(F)(F)F)c2)CC1)c1ccccc1 (stereo not given) [CAS_749-13-3] | 0.95 nM | 740 nM
15 | CN(C)CCCN1c2ccccc2Sc2ccccc21 | 72 nM | 7100 nM
16 | NC(=O)C1(N2CCCCC2)CCN(CCCC(=O)c2ccc(F)cc2)CC1 [CAS_1893-33-0] | 31 nM | 4900 nM
17 | CC(CN1c2ccccc2Sc2ccccc21)N(C)C (stereo not drawn) [N,N,alpha-trimethyl-10H-phenothiazine-10-ethanamine] | 240 nM | > 10000 nM
18 | CN(C)CCCN1c2ccccc2Sc2ccc(C(F)(F)F)cc21 [TRIFLUPROMAZINE] | 2.1 nM | 530 nM
19 | OCCN1CCN(CCC=C2c3ccccc3Sc3ccc(Cl)cc32)CC1 [NSC_12454] | 88 nM | > 10000 nM
20 | O=C(CCCN1CC=C(n2c(=O)[nH]c3ccccc32)CC1)c1ccc(F)cc1 [1-(1-(4-(4-fluorophenyl)-4-oxobutyl)-1,2,3,6-tetrahydropyridin-4-yl)-1H-benzo[d]imidazol-2(3H)-one] | 1 nM | 880 nM
21 | CC(C)NC(=O)C1C=C2c3cccc4[nH]cc(c34)CC2N(C)C1 (stereo not given) [CAS_60-79-7] | – | 61 nM
22 | O=C1NCN(c2ccccc2)C12CCN(CCCC(c1ccc(F)cc1)c1ccc(F)cc1)CC2 | 0.6 nM | 1400 nM
23 | CSc1ccc2c(c1)C(N1CCN(C)CC1)Cc1ccccc1S2 (stereo not given) [methanesulfonic acid;1-methyl-4-(3-methylsulfanyl-5,6-dihydrobenzo[b][1]benzothiepin-5-yl)piperazine] | 1.4 nM | 210 nM
24 | CNCC(O)c1ccc(O)c(O)c1 (stereo not given) [EPINEPHRINE] | 2600 nM and > 10000 nM | 280 nM and 1200 nM

Row | Structure (SMILES) | Ki [1] | Ki [2]
25 | CSc1ccc2c(c1)N(CC[C@@H]1CCCCN1C)c1ccccc1S2 [10-[2-(1-Methyl-piperidin-2-yl)-ethyl]-2-methylsulfanyl-10H-phenothiazine (thioridazine)] | – | 1800 nM and 1780 nM and 1810 nM
26 | NCC(O)c1ccc(O)c(O)c1 (stereo not drawn) [Noradrenaline,(+)] | > 10000 nM and 5600 nM | 820 nM and 200 nM
27 | O=C(CCCN1CCC(O)(c2ccc(Br)cc2)CC1)c1ccc(F)cc1 [BROMPERIDOL] | 1.4 nM | 600 nM
28 | NC1CCc2cc(O)c(O)cc2C1 (stereo not given) | 120 nM | 11 nM
29 | CC(C)[C@H]1C(=O)N2CCC[C@H]2[C@]2(O)O[C@](NC(=O)[C@@H]3C=C4c5cccc6[nH]cc(c56)C[C@H]4N(C)C3)(C(C)C)C(=O)N12 [ERGOCORNINE] | 0.7 nM | 36 nM
30 | CN1CCC(=C2c3ccccc3C=Cc3ccccc32)CC1 [5-(1-methylpiperidylidene-4)-5H-dibenzo(a,d)cyclopheptene] | 65 nM | 1200 nM
31 | OCCC1CCN(CCC=C2c3ccc(F)cc3Sc3ccc(C(F)(F)F)cc32)CC1 [CAS_60197-32-2] | 0.9 nM | 67 nM
32 | CN1CCN(CCCN2c3ccccc3Sc3ccc(C(F)(F)F)cc32)CC1 | 2.1 nM | 740 nM
33 | COc1ccc2c(c1O)-c1c3c(cc4c1[C@H](C2)N(C)CC4)OCO3 [(S)-11-methoxy-7-methyl-6,7,7a,8-tetrahydro-5H-benzo[g][1,3]dioxolo[4',5':4,5]benzo[1,2,3-de]quinolin-12-ol] | 930 nM | 800 nM
34 | NCCc1ccc(O)c(O)c1 | – | 17.5 nM and 16.8 nM and 11.7 nM
35 | CNCCc1ccc(O)c(O)c1 [CAS_62-32-8] | 530 nM | 23 nM
36 | O=C(CCCN1CCC(O)(c2ccc(Cl)c(C(F)(F)F)c2)CC1)c1ccc(F)cc1 [CAS_10457-91-7] | 0.5 nM | 360 nM
37 | CN(C)CC/C=C1\c2ccccc2Sc2ccc(Cl)cc21 | 4.4 nM | 250 nM
38 | CN1CCN2c3ccccc3Cc3ccccc3[C@H]2C1 [MIANSERIN (+)] | 620 nM | 2500 nM
39 | OCCN1CCN(CC/C=C2/c3ccccc3Sc3ccc(Cl)cc32)CC1 [2-[4-[(3Z)-3-(2-chloro-9-thioxanthenylidene)propyl]-1-piperazinyl]ethanol;hydrochloride] | 3.1 nM | 480 nM
40 | CC(C)[C@@]1(NC(=O)[C@@H]2C=C3c4cccc5[nH]cc(c45)C[C@H]3N(C)C2)O[C@@]2(O)[C@@H]3CCCN3C(=O)[C@H](Cc3ccccc3)N2C1=O [SMR000058447] | 1.4 nM | 52 nM
41 | CC(C)C[C@H]1C(=O)N2CCC[C@H]2[C@]2(O)O[C@](NC(=O)[C@@H]3C=C4c5cccc6[nH]c(Br)c(c56)C[C@H]4N(C)C3)(C(C)C)C(=O)N12 [Bromocriptine+ (GTP+)] | 2.5 nM | –
42 | CC[C@@H](CO)NC(=O)[C@@H]1C=C2c3cccc4c3c(cn4C)C[C@H]2N(C)C1 | 160 nM | 290 nM
43 | COc1ccccc1N1CCN(CCCC(=O)c2ccc(F)cc2)CC1 [Fluanisone] | 3.8 nM | 800 nM
44 | CN1C2CCC1CC(OC(c1ccccc1)c1ccccc1)C2 (stereo not given) | 230 nM | > 10000 nM
45 | CCN(CC)C(=O)[C@@H]1C=C2c3cccc4[nH]c(Br)c(c34)C[C@H]2N(C)C1 [LSD,2-Bromo] | 4 nM | 54 nM
46 | O=C(CCCN1CCN(c2ccccn2)CC1)c1ccc(F)cc1 [1-(4-Fluoro-phenyl)-4-(4-pyridin-2-yl-piperazin-1-yl)-butan-1-one(Azaperone)] | 10 nM | 1700 nM
47 | Cc1ccc(N(CC2=NCCN2)c2cccc(O)c2)cc1 [SMR000059054] | 2000 nM | > 10000 nM
48 | OC1(c2ccc(Cl)c(C(F)(F)F)c2)CCN(CCCC(c2ccc(F)cc2)c2ccc(F)cc2)CC1 [Penfluridol] | 5.6 nM | 1600 nM
